ChEMBL document CHEMBL3507680, “University of Dundee, Gates Library screen for HepG2 cell viability”

Test: Human HepG2 cell viability assay in 384 well format
Format: toxicity, cell-based
Design: dose 125 nL, time 70.5 hour; concentration not given beside the values
Conditions: HepG2 cells, read-out: Inhibition

In order of rising cytotoxicity at 70.5 h:
1. Cn1nc2c(cc1=O)CN(Cc1nc(-c3ccsc3)no1)CC2  -19.7%
2. CCc1nc(C2CCCN2CC(=O)Nc2cc(C)nn2C)no1 (centres undefined)  -15.1%
3. Cn1ccc(C(=O)NCc2ccc(N3CCOCC3)nc2)cc1=O  -12%
4. Cc1ccccc1-c1noc(CN2CCc3nn(C)c(=O)cc3C2)n1  -11.6%
5. Cc1cn2c(n1)CCC(NC(=O)c1oc(Br)cc1C)C2 (centres undefined)  -11.5%
6. CCCC(C#N)NC(=O)c1cc(Br)c2c(c1)OCCO2 (centres undefined)  -11.4%
7. CNc1snc(C)c1C(=O)N1CCCC(n2nc(C)nc2C)C1 (centres undefined)  -10.6%
8. COCCC(C)NC(=O)c1cc(Br)c2c(c1)OCCO2 (centres undefined)  -10.3%
9. CC(Cn1cccn1)NC(=O)c1cccs1 (centres undefined)  -9.89%
10. Cc1cnn(CC2CCCN2Cc2noc(-c3ccccc3)n2)c1 (centres undefined)  -9.63%
11. Cc1cn2c(n1)CCC(NC(=O)c1[nH]ncc1Br)C2 (centres undefined)  -9.45%
12. CC(Cn1ccnc1)NC(=O)NCc1cccnc1OC1CCCC1 (centres undefined)  -8.81%
13. Cn1cc(C(=O)NCc2ccc(N3CCCC3)nc2)ccc1=O  -8.81%
14. OC(CNCCn1cccn1)c1cccc(Br)c1 (centres undefined)  -8.75%
15. CCc1nccn1C1CCCN(C(=O)c2c(C)nsc2NC)C1 (centres undefined)  -7.79%
16. Cc1cnn(CC2CN(CCc3ccccn3)CCO2)c1 (centres undefined)  -7.7%
17. Cc1ccc(-c2nc(CN3CCCCC3Cn3cncn3)no2)cc1 (centres undefined)  -7.36%
18. Cc1cnn(CC2CN(CC(=O)N(C)Cc3cnn(C)c3)CCO2)c1 (centres undefined)  -7.34%
19. O=C(NCCCN1CCc2ccccc2C1)c1ccccc1Cl  -7.27%
20. CC(NC(=O)N1CCN(c2nccs2)CC1)c1nncn1C (centres undefined)  -7.23%
21. Cc1cccc(-c2noc(CN3CCCCC3Cn3cncn3)n2)c1 (centres undefined)  -6.45%
22. Cc1nn(C)c(C)c1C1CCCN1C(=O)c1ccc(N(C)C)nn1 (centres undefined)  -6.36%
23. Cc1nc(C2CCCN2CC(=O)Nc2cc(C(C)(C)C)nn2C)no1 (centres undefined)  -6.05%
24. CCc1nc(CN2CCCN(Cc3nnc(C4CC4)o3)CC2)no1  -5.98%
25. Cc1cnn(CC2CN(CC(=O)Nc3ccncc3)CCO2)c1 (centres undefined)  -5.95%
26. CC(=O)NCCNC(=O)CN1CCOC(Cn2cc(C)cn2)C1 (centres undefined)  -5.91%
27. Cc1cc(NC(=O)CN2CCCC2c2noc(C)n2)n(C)n1 (centres undefined)  -5.38%
28. COc1ccc(C(=O)N2CCCS2(=O)=O)cc1  -5.25%
29. Cc1ccc(OCCN(C)C(=O)NC(C)c2nncn2C)cc1 (centres undefined)  -5.04%
30. Cc1nc(CC(=O)N2CCCC2Cn2cccn2)cs1 (centres undefined)  -5%
31. OC(CNCCn1cccn1)c1ccc(C(F)(F)F)cc1 (centres undefined)  -4.94%
32. O=C(c1ccc2c(c1)OCCO2)N1CCCC(n2ccnc2)C1 (centres undefined)  -4.86%
33. CN(C)C(=O)CN1CCN(C(=O)Cc2csc(-c3ncccn3)n2)CC1  -4.31%
34. Cc1nc(C(=O)N2CCCC2c2c(C)nn(C)c2Cl)ccc1C#N (centres undefined)  -4.22%
35. O=C(NCCc1coc(-c2ccc(F)cc2)n1)NC1CC1  -3.96%
36. CCc1nc(CN2CCCC2c2c(C)nn(C)c2OC)no1 (centres undefined)  -3.81%
37. Cc1cc(C2CCCN(C(=O)COc3cc(C)on3)C2)n[nH]1 (centres undefined)  -3.29%
38. Cc1cc(C)n(CC2CCCN2Cc2nc(N)c3ccccc3n2)n1 (centres undefined)  -3.06%
39. Cc1cc(OCC(=O)N2CCCC(c3nccs3)C2)no1 (centres undefined)  -2.96%
40. Cc1nn(C)c(C)c1C1CCCN1C(=O)c1cnccn1 (centres undefined)  -2.94%
41. CCc1nc(C2CCCN2C(=O)c2cc(Cl)c[nH]2)no1 (centres undefined)  -2.89%
42. CCC(C)NC(=O)c1cc(Br)c2c(c1)OCCO2 (centres undefined)  -1.67%
43. Cc1nnc(CN(C)C2CCN(Cc3nc4ccccc4n3C)C2)o1 (centres undefined)  -1.55%
44. COc1ccc(-c2noc(CN3CCCC3Cn3cccn3)n2)cc1 (centres undefined)  -1.01%
45. CC(Cc1cccs1)NC(=O)CCn1cccn1 (centres undefined)  -0.682%
46. Cc1ccc(-c2nc(CCNC(=O)NCC(C)(C)C(N)=O)co2)cc1  -0.0567%
47. Cc1ccc(-c2nc(CCNC(=O)NC3CCC(O)CC3)co2)cc1 (centres undefined)  0.284%
48. COc1ccc(CNc2cnn(C)c(=O)c2Cl)cc1  1.82%
49. CCc1nc(C2CCCN2C(=O)c2cc[nH]n2)no1 (centres undefined)  3.06%
50. NC(=O)C1CCCN(c2ccc(CNC(=O)c3cc[nH]n3)cc2)C1 (centres undefined)  5.04%
51. Cc1cc(OCC(=O)N2CCCC(c3nc(C)c(C)s3)C2)no1 (centres undefined)  11.5%
52. CCn1cnnc1CNC(=O)N1CCC(C)CC1  16.5%
53. Cn1ncc(NCc2cccc(OCC(F)(F)F)c2)c(Cl)c1=O  18.3%
54. O=C(CN1CCOC(CNc2cccnn2)C1)NCc1ccccn1 (centres undefined)  19%
55. CC(Cn1cccn1)NC(=O)NCc1ccc(OC2CCCC2)nc1 (centres undefined)  19.5%
56. O=C(NCCc1coc(-c2ccccc2)n1)NC1CC1  20.2%
57. COc1c(C2CCCN2Cc2noc(C(C)C)n2)c(C)nn1C (centres undefined)  28.5%
58. Cc1nc(C)n(CC2CCCN(CCOc3ccccc3F)C2)n1 (centres undefined)  28.7%
59. COc1c(CNC(c2ccc(F)cc2)c2nccn2C)c(C)nn1C (centres undefined)  45.1%
